In paper PMC9905731, “PIN1 and PIN4 inhibition via parvulin impeders Juglone, PiB, ATRA, 6,7,4′-THIF, KPT6566, and EGCG thwarted hepatitis B virus replication” (Frontiers in Microbiology, 2023) one finds CC50 data, which are given here for six compounds.

This data set can be described thus: MTT cell cytotoxicity assay. Format: cell-based. The note with it: human, Huh7, HepAD38, HepG2, HepG2.2.15 cells, cell line not stated, read-out: 50% cytotoxic concentration (CC50). The method, then: Since PIN1 and PIN4 were highly expressed in HCC cells, we speculated that the inhibition of parvulins via Juglone, PiB, ATRA, 6,7,4′-THIF, KPT6566, and EGCG might affect HBV replication (Figure 2A). The optimum dosage was determined in several HCC cell lines. Compared to mock or solvent-treated 10, 20, 30, 50, or 100 μM, drug-treated cell viabilities were determined by the MTT assay in Huh7, HepAD38, HepG2, and HepG2.2.15 cells (Figure 2B). The data from triplicate experiments were used to examine 50% cytotoxic concentration (CC50) of Juglone, PiB, ATRA, 6,7,4′-THIF, KPT6566, and EGCG via the GraphPad Prism software (Figure 2C). The CC50 values for Juglone and PiB were 30 and 40 μM, respectively. […] However, KPT6566 and EGCG depicted 45 and 80 μM as CC50 values, respectively. We optimized the effects of Juglone and PiB parvulin inhibitors in diverse HBV replicating HCC cell lines at 20 μM concentration. In addition, 30 μM concentrations were used to determine the effects of ATRA, 6,7,4′-THIF, and KPT6566 on HBV replication. While a 40 μM concentration of EGCG was optimized for determining the effects on HBV replication in multiple HCC cell lines.
Figure 2 MTT assay to measure the cytotoxicity of parvulin inhibitors (Juglone, PiB, ATRA, 6,7,4′-THIF, KPT6566, and EGCG). (A) The chemical structures of parvulin inhibitors including Juglone, PiB, ATRA, 6,7,4′-THIF, KPT6566, and EGCG are shown. (B) Huh7, HepAD38, HepG2, and HepG2.2.15 cells were exposed to varying concentrations (10 μM, 20 μM, 30 μM, 50 μM, and 100 μM) of inhibitors Juglone, PiB, ATRA, 6,7,4′-THIF, KPT6566, and EGCG for 48 h and values were determined via MTT assay. (C) The concentrations of Juglone, PiB, ATRA, 6,7,4′-THIF, KPT6566, and EGCG at which cell viability was reduced to 50% (CC50) to that of the control (cells treated by the solvent) were determined. TEXT PRINTED IN THE PICTURE: (C) Juglone: CC50: 30 | (C) PiB: CC50: 40 | (C) ATRA: CC50: 45 | (C) 6,7,4 THIF: CC50: 50 | (C) KPT6566: CC50: 45 | (C) EGCG: CC50: 80 DOUBTS OF THE COPYIST ABOUT THIS PICTURE: All CC50 labels in panel C are printed small and blurred, and no unit is printed with them / Juglone, CC50: 30 or 50 / ATRA, CC50: 45 or 46 / 6,7,4 THIF, CC50: 50 or 60 / KPT6566, CC50: 45 or 46 / EGCG, CC50: 80 or 30, first digit partly overlapped by an error bar
The cytotoxic effects of parvulin inhibitors (Juglone, PiB, ATRA, 6,7,4′-THIF, KPT6566, and EGCG) via MTT (3-[4,5-dimethylththiazol-2-yl]-2,5-diphenyltetrazolium bromide) assay were determined in Huh7, HepAD38, HepG2, and HepG2.2.15 cell lines. The cells were grown in 96-well microplates and incubated with serial dilutions of Juglone, PiB, ATRA, 6,7,4′-THIF, KPT6566, or EGCG for 48 h at 37°C. The cellular viabilities were examined after replacing the culture medium with 100 μl of MTT in DMEM. After 3 h, 100 μl of DMSO was added to dissolve the formazan of MTT. The absorbance value was measured at 570 nm via plate reader. Afterward, the concentrations of Juglone, PiB, ATRA, 6,7,4′-THIF, KPT6566, and EGCG at which cell viability was reduced to 50% (CC50) to that of the control were determined.
For orientation: Tetrazolium assays rely on reduction of a dye to a coloured formazan, in cell work by metabolically active cells.
As for `O=c1c(-c2ccc(O)cc2)coc2cc(O)c(O)cc12` [6,7,4′-THIF, 6,7-dihydroxy-3-(4-hydroxyphenyl)-4H-chromen-4-one], the CC50 at 48 h is 50 µM.

`CC1=C(/C=C/C(C)=C/C=C/C(C)=C/C(=O)O)C(C)(C)CCC1` [ATRA, All-trans-retinoic acid]: the CC50 at 48 h worked out at 45 µM.

As for `O=C(O[C@@H]1Cc2c(O)cc(O)cc2O[C@@H]1c1cc(O)c(O)c(O)c1)c1cc(O)c(O)c(O)c1` [EGCG, Epigallocatechin gallate], the CC50 at 48 h amounted to 80 µM.

As to `O=C1C=CC(=O)c2c(O)cccc21` [Juglone, 5-hydroxyl-1,4-naphthoquinone], the CC50 at 48 h was 30 µM.

Take `CC(C)(C)c1ccc(S(=O)(=O)N=C2C=C(SCC(=O)O)C(=O)c3ccccc32)cc1` [KPT6566, 2-[[4-[[[4-(1,1-dimethylethyl)phenyl]sulfonyl]imino]-1,4-dihydro-1-oxo-2-naphthalenyl]thio] acetic acid]: the CC50 at 48 h came to 45 µM.

In the case of `CCOC(=O)CN1C(=O)c2ccc3c4c(ccc(c24)C1=O)C(=O)N(CC(=O)OCC)C3=O` [PiB, 1,3,6,8-tetrahydro-1,3,6,8-tetraoxo-benzo [lmn][3,8] phenanthroline-2,7-diacetic acid, 2,7-diethyl ester], the CC50 at 48 h stood at 40 µM.
